Source: patent US20200290950A1, “ALKAMIDE COMPOUNDS AND USES THEREOF” (NORTH CAROLINA STATE UNIVERSITY, priority 2017, published 2020)

Assays:
[1] = test system: RBL-2H3 cells; assay: Fluo-4 calcium assay, RBL-2H3 cells (Example 1); type: cell-based, rat
Description: (§1) FIGS. 3A-3H. A15 inhibits calcium influx in RBL-2H3 cells and BMMCs. RBL-2H3 cells (FIGS. 3A-3D) and BMMCs (FIGS. 3E-3H) were plated and incubated overnight prior to treatments. For DNP-BSA treatments, overnight incubation also included 1 μg/mL IgE anti-DNP. Prior to stimulation, cells were washed and loaded with the fluorescent, calcium-sensitive dye fluo-4 AM using the Fluo-4 AM Direct™ Calcium Assay Kit and fluorescence was measured on a microplate reader. Calcium influx was triggered in all experiments using either 1 μM A23187 or 50 ng/mL DNP-BSA, as indicated. Bar graphs represent the means±SEM of the Δ in RFU's at 1 min post-A23187- or DNP-BSA-stimulation from 3 independent experiments (FIGS. 3B, 3D, 3F, 3H). Statistical analysis was performed using a one-way ANOVA with Dunnett's post-hoc test, *p<0.05, **p<0.01, ***p<0.001.
FIG. 9. A15 inhibits calcium influx in RBL-2H3 cells. Prior to stimulation, cells were washed and loaded with the fluorescent, calcium-sensitive dye fluo-4 AM using the Fluo-4 AM Direct™ Calcium Assay Kit. Cells were treated with 100 μM A15 (D, E, F), 0.25% ethanol only (vehicle) (A, B, C), 1 μM A23187 (G, H, I), and 100 μM A15 in combination with 1 μM A23187 (J, K, L) as indicated. Images were acquired at 30, 60, and 120 seconds, post-stimulation. Images are representative of several experiments.
(§2) RBL-2H3, BMMC, RAW 264.7, or Jurkat cells were plated in clear-bottom, black, 96-well plates (BioExpress, Kaysville, Utah) and incubated overnight with media only or media containing IgE anti-DNP. Cells were loaded with the calcium-sensitive dye fluo-4 AM using the Fluo-4 Direct™ Calcium Assay Kit (Thermo Fisher Scientific) according to the manufacturer's instructions by incubating at 37° C. for 30 min followed by 30 min at room temperature. Prior to stimulation, baseline fluorescent readings were measured from triplicate wells in 5 s intervals for 1 min using a Synergy HT microplate reader with 485/20 nm excitation and 528/20 nm emission filters. Cells were then treated with either 1 μM A23187 or 50 ng/mL DNP-BSA prepared in calcium- and magnesium-containing or calcium- and magnesium-free HBSS with 20 mM HEPES, and fluorescence was measured in 10 s intervals for 2 min. The final concentration of ethanol was 0.25% in these assays. The average baseline fluorescence of each well was subtracted from the stimulated fluorescent values to calculate the change (Δ) in RFU's and graphed as shown.
Cells loaded with fluo-4 were treated and observed with an Axioskop 2 microscope (Zeiss, Oberkochen, Germany) using a fluorescent illuminator HXP-120 light source and images were acquired at 30, 60, or 120 sec after stimulation with a AxioCam MRc5 camera (Zeiss) and AxioVision software (Zeiss).

[2] = test system: RBL-2H3 cells; assay: β-Hexosaminidase release assay (Example 3); type: cell-based, rat
Description: FIGS. 21A-21D. The inhibition of degranulation is dependent on the length of the alkamide fatty acid chain. RBL-2H3 cells were plated overnight, stimulated with 1 μM A23187 (FIG. 21A) or 5 ng/mL DNP-BSA (FIG. 21B) for 1 h in the absence or presence of each compound. Graphs display the mean percent β-hex release. Data are presented as the mean of 4 experiments. Percent inhibition of degranulation of A23187 (FIG. 21C) or DNP-BSA (FIG. 21D) using data from A and B, respectively. *P<0.05, **P<0.01, ***P<0.001, one-way ANOVA with Dunnett's post hoc test compared to vehicle (A, B) or A15 (C, D).
RBL-2H3 cells (1.0×10^5 cells) were incubated with or without 0.1 μg/mL of IgE-DNP overnight in a 96 well plate at 37° C. with 5% CO2. The cells were washed with Tyrode's buffer and assayed with few modifications (Kuehn, Radinger, & Gilfillan, 2010). Briefly, IgE-DNP sensitized cells were stimulated 1 hour with 5 ng/mL of DNP-BSA in the absence or presence of each compound and incubated at 37° C. with 5% CO2. For experiments using only A23187 as the stimulant, cells were washed with Tyrode's buffer and stimulated 1 hour with 1 μM A23187 in the absence or presence of each compound and incubated at 37° C. with 5% CO2. The stimulated cells were centrifuged at 1200×g for 5 minutes. The supernatant or cell lysate (30 μL) was incubated with 3.4 mg/mL of p-NAG (10 μL) for 1 hour at 37° C. The reaction was terminated by addition of 0.2 M sodium carbonate (pH 10) and the absorbance was read at OD405 nm on a BioTek Synergy HT microplate reader. The total 3-hexosaminidase released from the cell was calculated as the difference between the OD of the supernatant and blank plus the difference between the OD of the lysate and blank. The percent β-hexosaminidase released from the cell was calculated as the difference between the OD of the supernatant and blank divided by the total β-hexosaminidase released from the cell multiplied by 100: ODsupernatant−ODblank/[(ODlysate−ODblank)+(ODsupernatant−ODblank)]*100.

[3] = target: cannabinoid type 2 receptor (CB2) (Homo sapiens, UniProt P34972); details: Raduner et al., 2006; cited from earlier work
[4] = test system: BMMCs; assay: Fluo-4 calcium assay, BMMCs; type: cell-based, mouse
Description: as §1, §2

cannabinoid type 2 receptor (CB2), sequence (P34972 whole entry, species assumed): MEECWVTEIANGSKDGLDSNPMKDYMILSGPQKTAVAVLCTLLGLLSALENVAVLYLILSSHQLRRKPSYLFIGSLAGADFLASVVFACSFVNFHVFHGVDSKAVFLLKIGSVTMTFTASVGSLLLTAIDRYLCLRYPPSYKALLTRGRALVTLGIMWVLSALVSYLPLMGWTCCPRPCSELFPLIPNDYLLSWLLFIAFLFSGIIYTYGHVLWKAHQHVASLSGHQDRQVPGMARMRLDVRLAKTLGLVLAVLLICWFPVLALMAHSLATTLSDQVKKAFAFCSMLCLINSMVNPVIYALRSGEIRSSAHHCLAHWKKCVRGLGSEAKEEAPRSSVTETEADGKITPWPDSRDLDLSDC

CCCCCCC/C=C/C=C/C(=O)NCC(C)C [A15, (2E,4E)-N-Isobutyldodeca-2,4-dienamide]
calcium response ([1]; RBL-2H3 cells treated with IgE anti-DNP and DNP-BSA): blocked the calcium response
inhibition at 100 µM ([1]; Rattus norvegicus, 1 min, A23187-treated RBL-2H3 cells, 100 μM, 1 min post-stimulation, read-out: inhibition of rise in intracellular calcium): 83.2%
constitutive fluorescence in unstimulated cells, compared to vehicle ([1]; unstimulated RBL-2H3 cells, 100 μM, pixel intensity, n=5 fields): did not cause a significant change in the level of constitutive fluorescence
percent inhibition of degranulation ([2]; 5 ng/mL DNP-BSA, 1 hour): 27%
percent inhibition of degranulation ([2]; 1 μM A23187, 1 hour): 47%
binding to CB2 [3]: shown to bind
calcium response ([4]; BMMCs treated with A23187): blocked the calcium response
calcium response ([4]; BMMCs treated with IgE anti-DNP and DNP-BSA): blocked the calcium response
calcium response to compound itself ([4]; BMMCs, A15 alone): did not cause a calcium response
